Reference: EP0620231B1, “Human parvovirus B19 epitope-related peptide” (Shin-Etsu Chemical Co., Ltd., priority 1993, dated 1996)

Experiments:
anti-HPV B19 antibodies [1] = assay: Secondary screening: reactivity of free synthetic peptides with anti-HPV B19 antibodies; assay type: binding; conditions: for Reactivity with Anti-HPV B19 Antibodies: free peptides, symbols ⓞ, X printed without a legend
From the text: A secondary screening would be carried out to make clear the reactivity of a free peptide with the anti-HPV B19 antibodies. In this respect, the synthesis of such a free peptide should be performed while taking, into consideration, the degree of difficulty in synthesizing and purifying the corresponding amino acid sequence. Moreover, the number of amino acid residues in the free peptide should be determined after inquiring into possible structures of each amino acid sequence, i.e., the result of the secondary structure-determination using the computer program.
The foregoing primary screening was performed by preparing peptides each equally having 15 amino acid residues therein, but the secondary screening was carried out while preparing various peptides having variously changed amino acid residue numbers due to the reasons discussed above and the inventors have narrowed down to 6 amino acid sequences listed in the following Table 2.
Finally, 6 kinds of free peptides corresponding to the foregoing 6 amino acid sequences were synthesized and were inspected for the reactivity with the anti-HPV B19 antibodies. […]

[2] = tested on: IgM among the anti-HPV antibodies; assay: Detection Example 2: ELISA detection of immunoglobulin M (IgM) in patient serum on immobilized peptide; assay type: binding; conditions: ELISA with HRP-labeled human IgM antibody; Fig. 5
From the text: In this example, the serum obtained from a patient infected with HPV B19 was inspected for the presence of an IgM antibody by the ELISA method. The same procedures used in Detection Example 1 were repeated to give an immobilized solid support and to carry out the same assay except that HRP-labeled human IgM antibody was substituted for the HRP-labeled human IgG antibody used in Detection Example 1.
The peptide of Formula (1) was used in this determination. In addition, the peptides of Formulae (2) and (3) were also used as comparative peptides. The results thus obtained are plotted on Fig. 5.

anti-HPV B19 antibodies [3] = assay: Detection Example 3: determination of IgG with peptide immobilized through biotin-avidin affinity; assay type: binding, human; conditions: biotinylated peptide on avidin plate, Fig. 6
Method: This Example is given for illustrating a method in which the immobilized solid support is prepared by immobilizing peptide onto the solid support through the use of the biotin-avidin affinity to thus determine the IgG antibody. First of all, a 250 µg/mℓ solution of biotin-N-hydroxysuccinimide ester (NHS-Biotin) was dispensed to wells (100µℓ each) of a microtiter plate of polystyrene carrying, on the surface, amino groups and the reaction was continued at 37 °C for 2 hours. Then the microtiter plate was washed 6 times with a phosphate buffer, a 50µg/mℓ solution of avidin was dispensed to the wells (100µℓ each) and they were reacted at 37 °C for one hour.
The biotinylated peptide used herein was obtained by coupling NHS-Biotin to the N-terminal of the protected peptide prepared in the same manner used in the foregoing Peptide Preparation Example followed by removal of the protective groups and purification carried out according to the same manner used in the foregoing Peptide Preparation Example. The resulting biotinylated peptide was washed 6 times with a phosphate buffer and subjected to blocking and assay according to the same method used in Detection Example 2.
The peptide of Formula (1) was used in this determination. In addition, the peptides of Formulae (2) and (3) were also used as comparative peptides. The results thus obtained are plotted on Fig. 6. […]

[4] = tested on: anti-HPV B19 antibody (IgG); assay: Detection Example 1: ELISA detection of immunoglobulin G (IgG) in patient serum on immobilized peptide; assay type: binding, human; conditions: Fig. 4
Method: In this example, the serum obtained from a patient infected with HPV B19 was inspected for the presence of an IgG antibody by the ELISA method. A microtiter plate made of polystyrene was used as a solid support. A peptide solution whose peptide concentration was adjusted to 10µg/mℓ with a phosphate buffer was dispensed to the wells (100µℓ each) of the plate and then the peptide was allowed to be immobilized at room temperature overnight to give an immobilized solid support. The immobilized solid support was then treated with blocking agent for inhibiting any non-specific adsorption reaction of unlinked sites present on the solid support with the IgG antibody. […]
The microtiter plate was washed 6 times with a phosphate buffer, then horseradish peroxidase (HRP)-labeled anti-human IgG antibody which was diluted 1000 times with the same buffer was dispensed to the wells (100µℓ each) and they were reacted at 37°C for one hour. […] The colored product was inspected for the presence of HRP through determination of absorbance at a wavelength of 492 nm using a microtiter plate reader.
The peptide of Formula (1) was used in this determination. […] In Fig. 4, the time after onset of illness is plotted as abscissa and the absorbance as ordinate.

| Structure (SMILES) | reactivity with the anti-HPV B19 antibodies compared with the peptide reported by Sato et al. (anti-HPV B19 antibodies [1]; comparison with peptide VP2 328-344) | Reactivity with Anti-HPV B19 Antibodies (anti-HPV B19 antibodies [1]) | reactivity with IgM among the anti-HPV antibodies [2] | reactivity at the initial stage of the infection (the acute stage) (anti-HPV B19 antibodies [3]) | reactivity with the anti-HPV B19 antibodies (anti-HPV B19 antibodies [3]) | reactivity with the anti-HPV B19 antibody (IgG) ([4]; ELISA, absorbance at 492 nm, serum diluted 200 times, peptide 10 µg/ml) | reactivity at the initial stage of the infection (the acute stage) ([4]; IgG ELISA, time after onset of illness) |
| --- | --- | --- | --- | --- | --- | --- | --- |
| CC[C@H](C)[C@H](NC(=O)CNC(=O)[C@@H](NC(=O)[C@@H](NC(=O)[C@H](Cc1ccc(O)cc1)NC(=O)[C@H](CCCCN)NC(=O)[C@H](CC(=O)O)NC(=O)[C@@H](NC(=O)[C@H](CC(=O)O)NC(=O)[C@H](Cc1c[nH]c2ccccc12)NC(=O)[C@H](Cc1c[nH]cn1)NC(=O)[C@H](Cc1c[nH]cn1)NC(=O)[C@H](Cc1ccc(O)cc1)NC(=O)[C@@H]1CCCN1C(=O)[C@@H](N)CCC(N)=O)[C@@H](C)O)C(C)C)[C@@H](C)O)C(=O)N[C@@H](CC(N)=O)C(=O)N[C@@H](C)C(=O)N[C@H](C(=O)N[C@@H](CO)C(=O)N[C@@H](Cc1c[nH]cn1)C(=O)NCC(=O)N[C@@H](CCC(N)=O)C(=O)N[C@H](C(=O)N[C@H](C(=O)N[C@@H](Cc1ccc(O)cc1)C(=O)O)[C@@H](C)O)[C@@H](C)O)[C@@H](C)CC [Formula (1)] | extremely high | ⓞ | high reactivity | strong reactivity | high reactivity | high reactivity | strong reactivity |
| CC(C)C[C@H](N)C(=O)N[C@@H](CCCNC(=N)N)C(=O)N1CCC[C@H]1C(=O)NCC(=O)N1CCC[C@H]1C(=O)N[C@H](C(=O)N[C@@H](CO)C(=O)N[C@@H](CCC(N)=O)C(=O)N1CCC[C@H]1C(=O)N[C@@H](Cc1ccc(O)cc1)C(=O)N[C@@H](Cc1c[nH]cn1)C(=O)N[C@@H](Cc1c[nH]cn1)C(=O)N[C@@H](Cc1c[nH]c2ccccc12)C(=O)N[C@@H](CC(=O)O)C(=O)N[C@H](C(=O)N[C@@H](CC(=O)O)C(=O)N[C@@H](CCCCN)C(=O)O)[C@@H](C)O)C(C)C [Formula (3), H-Leu-Arg-Pro-Gly-Pro-Val-Ser-Gln-Pro-Tyr-His-His-Trp-Asp-Thr-Asp-Lys-OH, reference compound] |  | ○ |  |  |  |  |  |
